Results from PMC10916560 (Food Science & Nutrition, 2023).
“Also recorded” adds a separate entry of the source. Where two headings read alike, the source gives them in different places.

How the values were obtained:
[1] = DPPH radical scavenging activity; format: biochemical; conditions: for DPPH radical scavenging activity: mean ± SD, n = 3; for free-radical scavenging activity (DPPH and ABTS): 0.2 mg/mL (200 μg/mL)
Method: The DPPH scavenging activities of PWE and isolated compounds were determined according to the method described by Blois ([1958]). In the method, the stable DPPH radical is removed by the free‐radical scavenging activity of the sample. […] Then, the prepared DPPH solution (1 mL, […]) was added, followed by incubation for 30 min in the dark. After incubation, the DPPH elimination activity of the sample was measured spectrophotometrically (Necip et al., [2021]).

[2] = ABTS radical scavenging activity; format: biochemical; conditions: 0.2 mg/mL; mean ± SD, n = 3
Method: ABTS also forms a relatively stable free‐radical that removes color in its non‐radical form (Shirwaikar et al., [2006]). Spectrophotometric analysis of ABTS˙^+ scavenging activity was determined according to the Re method. In this method, the sample is added to the previously formed ABTS radical solution, and the amount of ABTS˙^+ remaining after a fixed time is spectrophotometrically at 734 nm. […] The absorbance was recorded 30 min after mixing, and the percentage of radical scavenging was calculated for each concentration compared to the blank sample without scavenger (Necip & Durgun, [2022]; Re et al., [1999]).

[3] = biological target: AChE from electrophorus electricus (Electrophorus electricus, UniProt O42275); assay: biochemical
Method: Briefly, 50 μL of 5,5′‐dithio‐bis(2‐nitro‐benzoic) acid compound (DTNB) and 100 μL of Tris–HCl solution (1 M, pH 8.0) and 50 μL AChE from electrophorus electricus (5.32 × 10^−3 U) solution was incubated and stirred at 30°C for 15 min. Finally, the reaction was started by adding 50 μL of acetylthiocholine iodide (AChI), which was used as a substrate. Enzymatic hydrolysis of the substrate was recorded spectrophotometrically at a wavelength of 412 nm (Işık et al., [2020]; Wright & Plummer, [1973]). […] Percent inhibition values and IC50 values were determined using a graph (Kilic et al., [2020]).

[4] = FRAP metal reduction assay; format: biochemical; conditions: for metal reduction capacity, FRAP (in words): 0.2 mg/mL, Figure 5; for metal-reducing capacity (in words): FRAP and CUPRAC, statement in discussion
Method: (§1) The ferric cyanide (Fe^3+) reducing antioxidant power (FRAP) assay was performed using the modified method of the previously described Oyaizu method (Oyaizu, [1986]). The complex is formed when the method is reduced to the ferrous (Fe^2+) ion to ferric tripyridyl triazene (Fe^3+‐TPTZ) complex at 700 nm. It is based on the spectrophotometric measurement of the complex. The reduction capacity for cupric ions (Cu^2+) was determined by cupric ions reducing assay (CUPRAC) as previously described. A volume of 0.25 mL neocuproine (7.5 mM) in ethanol, 0.25 mL NH4Ac (1 M), and 0.25 mL CuCl2 (0.01 M) were mixed with isolated compounds, PWE, and different amounts of standards (10, 20, and 40 μg/mL).

[5] = CUPRAC cupric ions reducing assay; format: biochemical; conditions: 0.2 mg/mL, Figure 5
Method: as §1

[6] = ref El-Hady et al., 2013; cited from earlier work
AChE = conditions: read-out: AChE IC50; ref El-Hady et al., 2013; cited from earlier work

Chain of AChE from electrophorus electricus (O42275 24-633): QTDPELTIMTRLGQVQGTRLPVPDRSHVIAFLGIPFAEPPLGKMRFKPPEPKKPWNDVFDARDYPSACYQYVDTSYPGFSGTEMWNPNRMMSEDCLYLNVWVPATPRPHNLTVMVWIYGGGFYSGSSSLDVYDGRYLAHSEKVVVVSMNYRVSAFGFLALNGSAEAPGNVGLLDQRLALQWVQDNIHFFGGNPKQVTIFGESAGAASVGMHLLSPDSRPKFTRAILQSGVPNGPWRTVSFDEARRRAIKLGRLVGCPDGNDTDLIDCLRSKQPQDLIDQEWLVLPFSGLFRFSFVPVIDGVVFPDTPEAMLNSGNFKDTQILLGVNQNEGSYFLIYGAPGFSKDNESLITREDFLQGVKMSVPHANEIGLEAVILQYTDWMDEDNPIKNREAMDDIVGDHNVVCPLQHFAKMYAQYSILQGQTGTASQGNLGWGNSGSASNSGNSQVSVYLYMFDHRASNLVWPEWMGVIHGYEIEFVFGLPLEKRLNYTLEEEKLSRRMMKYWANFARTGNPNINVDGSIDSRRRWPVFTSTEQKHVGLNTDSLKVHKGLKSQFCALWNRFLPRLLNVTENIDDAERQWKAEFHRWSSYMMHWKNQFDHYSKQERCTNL

Row | Compound | DPPH radical scavenging activity ([1]; 0.2 mg/mL) | ABTS radical scavenging activity [2] [%] | IC50 [3] [µM] | also measured
1 | COc1cc(O)c2c(=O)cc(-c3ccc(O)cc3)oc2c1 [Genkwanin, genkwanin] | Inactive | 8.95 ± 0.8 | 1150 ± 30 | 
2 | O=C1C[C@@H](c2ccccc2)Oc2cc(O)cc(O)c21 [Pinocembrin, pinocembrin] | Inactive | 26.32 ± 1.3 |  | IC50 ([3]; isolated compounds, read-out: AChE (IC50)): 1100 ± 40 µM
3 | COc1ccc(O)c(C(C)(C)C)c1 [BHA, reference compound] | 80.20 ± 2.9% | 93.62 ± 3.6 |  | 
4 | Cc1cc(C(C)(C)C)c(O)c(C(C)(C)C)c1 [BHT, reference compound] | 51.57 ± 1.5% | 58.06 ± 2.4 |  | 
5 | O=c1cc(-c2ccc(O)cc2)oc2cc(O)cc(O)c12 [Apigenin, apigenin] | 79.02 ± 2.2% | 59.41 ± 1.5 | 710 ± 30 | free-radical scavenging activity (DPPH and ABTS) ([1]; DPPH and ABTS): over 60%; metal reduction capacity, FRAP (in words) [4]: moderate metal reduction capacity; metal-reducing capacity (in words) [4]: high metal‐reducing capacity; metal reduction capacity, CUPRAC (in words) [5]: metal reduction capacity close to the standards
6 | O=c1cc(-c2ccccc2)oc2cc(O)cc(O)c12 [Chrysin, chrysin] | Inactive | 4.35 ± 0.7 | 640 ± 20 | 
7 | O=c1c(O)c(-c2ccccc2)oc2cc(O)cc(O)c12 [Galangin, galangin] | 44.73 ± 1.8% | 62.01 ± 1.9 | 790 ± 20 | free-radical scavenging activity (DPPH and ABTS) ([1]; DPPH and ABTS): over 60%; metal reduction capacity, FRAP (in words) [4]: high metal reduction activity; metal-reducing capacity (in words) [4]: high metal‐reducing capacity; metal reduction capacity, CUPRAC (in words) ([5]; listed as 15): high metal reduction activity; also recorded: metal reduction capacity close to the standards
8 | O=C1c2c(O)cc(O)cc2O[C@H](c2ccccc2)[C@H]1O [Pinobanksin, pinobanksin] | 3.55 ± 0.6% | 15.63 ± 0.9 | 450 ± 10 | 
9 | COc1cc2ccc(=O)oc2c(O)c1O [Fraxetin, fraxetin] | 81.11 ± 1.7% | 87.44 ± 3.8 | 730 ± 40 | radical scavenging activity (in words) ([1]; DPPH and ABTS, 0.2 mg/mL): highest radical scavenging activities; free-radical scavenging activity (DPPH and ABTS) ([1]; DPPH and ABTS): over 60%; metal reduction capacity, FRAP (in words) [4]: moderate metal reduction capacity; metal-reducing capacity (in words) [4]: high metal‐reducing capacity; metal reduction capacity, CUPRAC (in words) [5]: metal reduction capacity close to the standards
10 | CC(C)=CCC[C@@H](C)[C@H]1CC[C@@]2(C)[C@@H]3CC[C@H]4C(C)(C)[C@@H](O)CC[C@@]45C[C@@]35CC[C@]12C [3β‐cycloartenol] |  |  |  | free-radical scavenging activity [6]: 59%; IC50 (AChE): 3.6 ± 0.1 µM
11 | Cc1c(C)c2c(c(C)c1O)CCC(C)(C(=O)O)O2 (stereo not drawn) [Trolox, trolox, reference compound] | 90.37 ± 3.8% | 89.99 ± 3.2 |  | 
